Assay results published in patent US10111950B2, “Modified glycolipids and methods of making and using the same” (Vaccinex, Inc., priority 2013, dated 2018).

Columns and labels:
[1] = target: T1, plate bound mCD1d (Mus musculus, UniProt P11609); test: Ligand binding to plate bound mCD1d with and without UV activation, ELISA using mAb L363; set-up: species or system murine; settings: for dissociation of CD1d:glycolipid complex after 3 days (L363 ELISA): 3 days in PBS+0.05% Triton X-100 at 25° C.
T1 construct: recombinant soluble murine CD1d (mCD1d) was diluted to 400 μg/ml in PBS pH 7.2
T1 sequence (P11609 22-305 limits assumed): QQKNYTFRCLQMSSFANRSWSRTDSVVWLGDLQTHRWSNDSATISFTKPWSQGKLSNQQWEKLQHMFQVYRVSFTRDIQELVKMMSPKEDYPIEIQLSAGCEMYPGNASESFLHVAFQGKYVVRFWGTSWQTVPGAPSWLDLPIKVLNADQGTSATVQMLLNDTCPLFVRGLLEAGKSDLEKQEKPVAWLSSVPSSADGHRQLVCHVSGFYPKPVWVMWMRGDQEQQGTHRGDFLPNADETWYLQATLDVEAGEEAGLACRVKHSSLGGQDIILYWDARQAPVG
T1 sequence (P01887 21-119 partner): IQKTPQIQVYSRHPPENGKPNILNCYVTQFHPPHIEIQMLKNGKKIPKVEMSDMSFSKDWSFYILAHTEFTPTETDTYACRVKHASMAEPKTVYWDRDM
Procedure: (§1) The ligand binding affinity of plate bound mCD1d was measured by ELISA using mAb L363 to detect murine CD1d/αGalCer complexes. ELISA plates were coated with mCD1d (10 μg/ml, 30 μl/well) overnight at 4° C. in PBS pH 8.2. Supernatant was then removed along with any unbound protein. Glycolipids (5 μM, 30 μl/well) were loaded and allowed to incubate overnight at 25° C. Supernatant was again removed and the complexes were washed three times with PBS to remove any unbound glycolipid. For those complexes that underwent UV activation, UV crosslinking was performed in solution (30 μl/well PBS) and at a fixed wavelength of 365 nm from a UV lamp (RAD-FREE long wave UV lamp, Schleicher & Schuell). The UV lamp was placed one inch from the sample and the sample was allowed to sit on ice for 1 hr.

[2] = target: T2, soluble recombinant mCD1d (Mus musculus, UniProt P11609); test: Direct comparison of DB12-8 and 7DW8-5 complexes with soluble recombinant mCD1d, L363 ELISA; format: binding, murine
T2 construct: A soluble recombinant mCD1d protein (10 μg/ml) was loaded with glycolipids
T2 sequence (P11609 22-305 limits assumed): T1 sequence (P11609 22-305 limits assumed)
T2 sequence (P01887 21-119 partner): T1 sequence (P01887 21-119 partner)
Procedure: as §1
(§2) The ligand binding affinity of plate bound mCD1d was detected by iNKT DN3A4-1.2 hybridoma stimulation assay. mCD1d (10 μg/ml) was loaded with glycolipids (5 μM) overnight at 25° C. ELISA plates were coated with mCD1d:GC complexes (2.5 μg/ml, 30 μl/well) for 12-18 hours at 4° C. in PBS pH 8.2. Supernatant was then removed and the complexes were washed three times with PBS to remove any unbound glycolipid and protein. For those complexes that underwent UV activation, UV crosslinking was performed in solution (30 μl/well PBS) and at a fixed wavelength of 365 nm from a UV lamp (RAD-FREE long wave UV lamp, Schleicher & Schuell). The UV lamp was placed one inch from the sample and the sample was allowed to sit on ice for 1 hr. Supernatant was then removed and the complexes were washed three times with PBS to remove any unbound glycolipid and protein.
A soluble recombinant mCD1d protein (10 μg/ml) was loaded with glycolipids (5 μM) overnight at 25° C. in PBS pH8.2 with 0.05% tyloxapol. The mCD1d:GC complexes (10 μg/ml, 30 μl/well) were coated onto the high binding ELISA plates, overnight at 4° C. UV exposure and incubation to allow dissociation over 3 days was performed as described in Examples 6 and 7.

[3] = system: iNKT hybridoma DN3A4-1.2 with plate bound mCD1d; test: Plate bound mCD1d:glycolipid complexes with and without UV activation, iNKT DN3A4-1.2 hybridoma stimulation assay (IL-2 ELISA); format: cell-based, murine; settings: for iNKT stimulation post-dissociation (IL-2 ELISA): after 3 days dissociation, non-crosslinked mCD1d complexes (UV state not stated for 7DW8-5)
Procedure: as §2

[4] = system: mCD1d.CEA fusion protein; test: Direct comparison of DB12-8 and 7DW8-5 complexes with mCD1d.CEA fusion protein, L363 ELISA; format: binding, murine
Procedure: as §1, §2
mCD1d.CEA (10 μg/ml), a recombinant mCD1d protein genetically fused with a single chain Fv antibody fragment specific for the tumor associated antigen CEA, was loaded with glycolipids (5 μM) overnight at 25° C. in PBS pH8.2 with 0.05% tyloxapol. The mCD1d.CEA:GC complexes (10 μg/ml, 30 μl/well) were coated onto wells of high binding ELISA 96 well plates overnight at 4° C. UV exposure and incubation to allow dissociation over 3 days were performed as described in Examples 6 and 7.
A scale up of the complex formation in solution was performed using a 10-fold increased concentration of protein and glycolipid and the results are shown in FIG. 9C-9D. mCD1d.CEA (100 μg/ml) was loaded with DB12-8 (50 μM respectively) overnight at 25° C. in PBS pH8.2 with 0.05% tyloxapol. DB12-8:mCD1d.CEA complexes were diluted down to 10 μg/ml and were coated onto the high binding ELISA plates (30 μl/well), overnight at 4° C. UV exposure and incubation to allow dissociation over 3 days were performed as described in Examples 6 and 7.

[5] = system: iNKT hybridoma DN3A4-1.2 with murine CD1d-expressing antigen presenting cells; test: iNKT hybridoma stimulation (IL-2 secretion) with mCD1d expressing BMDCs; format: cell-based, mouse; settings: BMDCs from C57BL/6 mice, BPGC 5 to 0.01 μg/ml for 3 hrs, hybridoma 18 hrs
Procedure: The activated natural killer cells were calculated based on those secreting IL-2. Specifically, bone marrow-derived dendritic cells (BMDCs) from C57BL/6 mice (10,000 cells in 100 μl culture medium) were plated in wells of a 96 well tissue culture plate and allowed to adhere to the plates for 30 minutes at 37° C. The cultures were then exposed to varying BPGC concentrations ranging between 5 and 0.01 μg/ml in 100 μl for 3 hrs at 37° C. Glycolipids not taken up by BMDCs were removed by washing with culture medium. To detect the BPGC presentation by CD1d, iNKT hybridoma DN3A4-1.2 (5000 cells in 100 μl volume) was added and the stimulation was detected by the level of IL-2 secreted in the supernatant following 18 hrs of incubation at 37° C.

[6] = system: iNKT hybridoma DN3A4-1.2 with human CD1d transfected HeLa cells; test: iNKT hybridoma stimulation (IL-2 secretion) with hCD1d expressing HeLa cells; format: cell-based; settings: BPGC 5 to 0.01 μg/ml for 3 hrs, hybridoma 18 hours
Procedure: The activated natural killer cells were again calculated based on those secreting IL-2. Specifically, plate bound human CD1d transfected HeLa cells (10,000 cells in 100 μl medium) were plated in a 96 well tissue culture plate and allowed to adhere to the plates for 30 minutes at 37° C. Adherent HeLa cells were treated with varying BPGC concentrations ranging between 5 and 0.01 μg/ml in 100 μl for 3 hrs at 37° C. Glycolipid not taken up by cells was removed by washing with medium. To detect the BPGC presentation by CD1d, iNKT hybridoma DN3A4-1.2 (5000 cells in 100 μl volume) was added and the stimulation was detected by the level of IL-2 secreted in the supernatant following incubation at 37° C. for 18 hours.

[7] = target: T3, mouse CD1d (Mus musculus, UniProt P11609); test: Tryptophan fluorescence quenching of mCD1d by glycolipid binding; settings: protein 0.1 μM, glycolipid 4 μM, 25° C., excited at λ295
T3 construct: recombinant soluble murine CD1d (mCD1d) was diluted to 400 μg/ml in PBS pH 7.2
T3 sequence (P11609 22-305 limits assumed): T1 sequence (P11609 22-305 limits assumed)
T3 sequence (P01887 21-119 partner): T1 sequence (P01887 21-119 partner)
Procedure: The effect of glycolipid binding to mouse CD1d was tested. Fluorescence quenching of mCD1d due to glycolipid binding was measured using a Horibo Jobin Yvon Fluoromax-3 fluorescent spectrophotometer and the data were analyzed using FluorEssence software. Protein (0.1 μM) was mixed either with glycolipid antigens (at 4 μM) or the ligand vehicle in a quartz cuvette 1 cm wide, to a final volume of 100 μl and placed in the spectrometer already set at 25° C. The samples were excited at λ295 and emission measured from […] to λ400.

| dissociation of CD1d:glycolipid complex after 3 days (L363 ELISA) ([1]; UV irradiated 365 nm 1 hr) | dissociation of CD1d:glycolipid complex after 3 days (L363 ELISA) ([1]; not UV irradiated) | dissociation after 3 days (L363 ELISA signal) ([2]; UV exposure at 365 nm) | affinity to CD1d, complex detected by L363 ELISA ([2]; mCD1d 10 μg/ml, glycolipid 5 μM) | dissociation after 3 days (L363 ELISA signal) ([2]; non UV-crosslinked state) | fluorescence quenching of mCD1d due to glycolipid binding [7] | SMILES | iNKT stimulation post-dissociation (IL-2 ELISA) [3] | dissociation after 3 days (L363 ELISA signal) ([4]; UV exposure at 365 nm) | affinity to CD1d, complex detected by L363 ELISA ([4]; mCD1d.CEA 10 μg/ml, glycolipid 5 μM) | dissociation after 3 days (L363 ELISA signal) ([4]; non UV-crosslinked state) | iNKT stimulation, level of IL-2 secreted in the supernatant [5] | CD1d/glycolipid complex formation detected by mAb L363 ELISA ([1]; plate bound mCD1d 10 μg/ml, glycolipid 5 μM) | iNKT stimulation, level of IL-2 secreted in the supernatant [6] | iNKT hybridoma stimulation following UV crosslinking (IL-2 ELISA) ([3]; UV crosslinked 365 nm 1 hr) |
| --- | --- | --- | --- | --- | --- | --- | --- | --- | --- | --- | --- | --- | --- | --- |
| dissociated after 3 days | dissociated after 3 days | almost complete loss of signal | showed affinity to CD1d | almost complete loss of signal |  | CCCCCCCCCCCCCC[C@@H](O)[C@@H](O)[C@H](CO[C@H]1O[C@H](CO)[C@H](O)[C@H](O)[C@H]1O)NC(=O)CCCCCCCCCCc1ccc(F)cc1 [Compound 7DW8-5, reference compound] | did not stimulate iNKT post-dissociation | almost complete loss of signal | showed affinity to CD1d | almost complete loss of signal |  |  |  |  |
| no significant dissociation |  |  |  |  |  | CCCCCCCCCCCCCC[C@@H](O)[C@@H](O)[C@H](COC1OC(CO)C(O)C(O)C1O)NC(=O)CCCCCCCCCOCc1cccc(C(=O)c2ccccc2)c1 (stereo partly drawn) [DB11-2] | some, albeit reduced, iNKT stimulation even after dissociation |  |  |  | stimulated iNKTs most efficiently at a low concentration of 0.1 μg/ml | highest levels of immunoreactive complex formation | stimulatory toward iNKT cells | second best stimulator |
|  |  |  |  |  | greatest quenching | CCCCCCCCCCCCCC[C@@H](O)[C@@H](O)[C@H](COC1OC(CO)C(O)C(O)C1O)NC(=O)CCCCCCCCOCc1cccc(C(=O)c2ccccc2)c1 (stereo partly drawn) [DB12-7] | some, albeit reduced, iNKT stimulation even after dissociation |  |  |  | lower but still significant IL-2 secretion |  |  |  |
